According to patent US12011444B2, “N-substituted indole derivatives as PGE2 receptor modulators” (Idorsia Pharmaceuticals Ltd, priority 2015, dated 2024):

Legend:
[1] = molecular target: EP4 (Homo sapiens (Human), UniProt P35408); experiment: hEP4 cAMP assay (BT549 breast cancer cells, HTRF cAMP); assay type: cell-based; settings: antagonistic activity; mean values where measured multiple times
Description: Plate is pre-incubated 45 minutes at room temperature. Subsequently, 2.5 microliters of PGE2 (final conc. 6 nM) are transferred into the assay plate. Plate is incubated 30 minutes at room temperature.

[2] = molecular target: EP2 (Homo sapiens (Human), UniProt P43116);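 further: antagonism of PGE2-stimulated cAMP accumulation in SF295 human glioblastoma cells with endogenous EP2, cAMP read by HTRF, expressed relative to DMSO control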
Sequence of EP2 (P43116 whole entry): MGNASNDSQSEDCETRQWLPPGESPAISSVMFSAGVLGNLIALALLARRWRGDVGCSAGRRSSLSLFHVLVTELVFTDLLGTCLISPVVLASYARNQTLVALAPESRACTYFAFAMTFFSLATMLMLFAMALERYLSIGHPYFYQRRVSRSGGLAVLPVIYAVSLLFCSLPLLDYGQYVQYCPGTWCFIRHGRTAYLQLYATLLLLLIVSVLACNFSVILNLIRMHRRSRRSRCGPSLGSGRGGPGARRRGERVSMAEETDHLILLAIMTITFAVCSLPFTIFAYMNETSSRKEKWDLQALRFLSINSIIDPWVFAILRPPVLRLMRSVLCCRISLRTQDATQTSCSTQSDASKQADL
Description: Human tumor cell lines expressing endogenously either EP4 or EP2 are used and cAMP accumulation in cells upon PGE2 stimulation is monitored. SF295 glioblastoma cells express high endogenous EP2 and no EP4, whereas BT549 breast cancer cells, express high endogenous EP4 levels and very low EP2 levels.
As a detection method for cAMP the HTRF (homogeneous time resolved fluorescence) Cisbio kit (HTRF cAMP dynamic 2 kit 20′000 tests Cisbio Cat. #62AM4PEC) was used, which is based on a competitive immunoassay using a Cryptate-labeled anti-cAMP antibody and d2-labeled cAMP. Native cAMP produced by cells or unlabeled cAMP (for the standard curve) compete with exogenously added d2-labeled cAMP (acceptor) for binding to monoclonal anti-cAMP-Eu3+Cryptate (donor). A FRET signal (Fluorescence Resonance Energy Transfer) is obtained only if the labeled anti-cAMP antibody binds the d2 labelled cAMP, thus the specific signal (i.e. energy transfer) is inversely proportional to the concentration of cAMP in the standard or sample.
The SF295 cells (NCI/No. 0503170) are detached from culture dishes with a cell dissociation buffer (Invitrogen, 13151-014), and collected in growing medium (GM: RPM11640 (Invitrogen 21875)/10% FCS, 1% Penicilin/streptomycin). Cells are counted washed and resuspended in assay buffer (AB; HBSS, 20 mM HEPES, 0.2% BSA; 2 mM IBMX). 4,000 cells in 5 μl of AB are seeded per well of a small volume 384 well plate (black with flat bottom, Greiner 784076).
PGE2 (Cayman 14010, stock solution: 75 μM in DMSO) is used as agonist at 75 nM final concentration, corresponding to EC80.
Two point five microliters of diluted compounds are transferred into the assay plate. Plate is pre-incubated 45 minutes at room temperature. Subsequently, 2.5 microliters of PGE2 (final conc. 75 nM) are transferred into the assay plate. Plate is incubated 30 minutes at room temperature. Five μl of each donor (anti-cAMP cryptate) and acceptor (cAMP-d2) are added and the plate is incubated another hour at room temperature in the dark and then read using a BMG LABTECH PHERAstar reader (Excitation: 337 nm, Emission: 620 and 665 nm).
The obtained Delta F (fluorescence) values (665 nm/620 nM) are converted into % cAMP values using the measurements of the cAMP calibrator provided in the kit. For each compound concentration the percentage of cAMP compared to DMSO control value as average±STDEV (each concentration is measured in duplicate) is calculated.
IC50 values and curves are generated with XLfit software (IDBS) using Dose-Response One Site model 203. When compounds were measured multiple times, mean values are given.

Sequence of EP4 (P35408 whole entry): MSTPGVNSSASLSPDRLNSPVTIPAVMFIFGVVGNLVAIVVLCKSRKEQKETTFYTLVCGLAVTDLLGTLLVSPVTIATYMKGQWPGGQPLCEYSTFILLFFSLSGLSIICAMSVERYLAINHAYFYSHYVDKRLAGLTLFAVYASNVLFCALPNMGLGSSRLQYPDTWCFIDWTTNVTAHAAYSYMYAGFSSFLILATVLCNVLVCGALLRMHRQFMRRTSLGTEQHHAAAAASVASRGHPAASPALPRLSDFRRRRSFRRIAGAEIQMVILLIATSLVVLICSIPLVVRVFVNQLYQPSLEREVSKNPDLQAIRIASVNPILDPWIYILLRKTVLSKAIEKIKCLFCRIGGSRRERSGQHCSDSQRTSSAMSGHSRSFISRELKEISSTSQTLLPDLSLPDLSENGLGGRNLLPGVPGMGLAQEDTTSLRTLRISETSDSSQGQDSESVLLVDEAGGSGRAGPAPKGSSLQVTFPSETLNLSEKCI

IC50 [1] [µM]	IC50 [2] [µM]	Compound
0.118	0.114	Cc1cc(F)c(F)c2c1cc(C)n2CCNc1cc(-c2ccc(-c3cnc(N)o3)cc2)ncn1 [compound 577]
0.04	0.033	COc1cc(F)c(F)c2c1cc(C)n2CCNc1cc(-c2ccc(-c3noc(=O)[nH]3)cc2)ncn1 [compound 678, 3-(4-{6-[2-(6,7-Difluoro-4-methoxy-2-methyl-indol-1-yl)-ethylamino]-pyrimidin-4-yl}-phenyl)-4H-[1,2,4]oxadiazol-5-one]
0.13	0.045	COc1cc(F)cc2c1cc(C)n2CCNc1cc(-c2ccc(C(=O)O)c(CC(C)C)c2)nc(C)n1 [compound 623]
0.406	0.008	COc1cc(-c2cc(NCCn3c(C)cc4c(OC)cccc43)ncn2)ccc1-c1nnn[nH]1 [compound 670, [2-(4-Methoxy-2-methyl-indol-1-yl)-ethyl]-{6-[3-methoxy-4-(1H-tetrazol-5-yl)-phenyl]-pyrimidin-4-yl}-amine]
0.058	0.006	COc1ccc(F)c2c1cc(C)n2CCNc1cc(-c2cc(Cl)c(C(=O)O)c(OCC(F)(F)F)c2)ncn1 [compound 725]
0.08	0.032	COc1cc(F)c(F)c2c1cc(C)n2CCNc1cc(-c2cc(Cl)c(C(=O)O)c(OCC(F)(F)F)c2)ncn1 [compound 722]
0.303	0.732	COc1c(Cl)cc(F)c2c1cc(C)n2CCNc1cc(-c2ccc(C(=O)O)c(CC(C)C)c2)ncn1 [compound 622]
0.829	0.048	COc1ccc(Cl)c2c1cc(C)n2CCNc1cc(-c2ccc(C(=O)O)c(OC(F)(F)F)c2)ncn1 [compound 605]
0.122	0.012	Cc1ccc(F)c2c1cc(C)n2CCNc1cc(-c2ccc(C(=O)O)c(OC(F)F)c2)ncn1 [compound 601]
0.435	0.157	COc1ccc(F)c2c1cc(C)n2CCNc1cc(-c2ccc(-c3n[nH]cc3C(=O)O)cc2)ncn1 [compound 593]
0.06	0.018	COc1cc(F)cc2c1cc(C)n2CCNc1cc(-c2cc(Cl)c(C(=O)O)c(OCC(F)(F)F)c2)ncn1 [compound 721]
0.865	0.729	CCOc1cc(-c2cc(NCCn3c(C)cc4c(OC)ccc(F)c43)ncn2)ccc1CNCC(C)C [compound 586]
0.15	0.01	COc1cccc2c1cc(C)n2CCNc1cc(-c2cc(Cl)c(C(=O)O)c(OCC(F)(F)F)c2)ncn1 [compound 720]
0.039	0.004	CCOc1cc(-c2cc(NCCn3c(C)cc4c(OC)ccc(F)c43)ncn2)ccc1-c1nnn[nH]1 [compound 661]
0.139	0.022	CCCOc1cc(-c2cc(NCCn3c(C)cc4c(OC)ccc(F)c43)ncn2)cc(F)c1C(=O)O [compound 610]
0.136	0.008	CCOc1cc(-c2cc(NCCn3c(C)cc4c(OC)ccc(Cl)c43)ncn2)ccc1-c1nnn[nH]1 [compound 662]

The next lines start with the molecule.

Compound	IC50 [1] [µM]	IC50 [2] [µM]
CCOC(=O)c1sc(-c2cc(NCCn3c(C)cc4c(OC)ccc(F)c43)ncn2)cc1OCC [Example 790, 3-Ethoxy-5-{6-[2-(7-fluoro-4-methoxy-2-methyl-indol-1-yl)-ethylamino]-pyrimidin-4-yl}-thiophene-2-carboxylic acid ethyl ester]	0.101	0.042
COc1ccc(-c2ccc(-c3cc(NCCn4c(C)cc5c(OC)cc(F)cc54)ncn3)cc2)nn1 [Example 756, [2-(6-Fluoro-4-methoxy-2-methyl-indol-1-yl)-ethyl]-{6-[4-(6-methoxy-pyridazin-3-yl)-phenyl]-pyrimidin-4-yl}-amine]	0.194	0.085
CCOc1cc(-c2cc(NCCn3c(C#N)cc4c(OC)cc(F)cc43)ncn2)ccc1C(=O)O [compound 480]	0.075	0.026
COc1cc(F)cc2c1cc(C)n2CCNc1cc(-c2ccc(-c3ccon3)cc2)ncn1 [compound 558]	0.111	0.016
CCOc1cc(-c2cc(NCCn3c(C)cc4c(OC)ccc(F)c43)ncn2)ccc1CNC1CC1 [compound 473]	0.646	0.538
CCCc1cc(-c2cc(NCCn3c(C)cc4c(C)ccc(F)c43)ncn2)cc(Cl)c1C(=O)O [compound 413]	0.055	0.029
CCCOc1cc(-c2cc(NCCn3c(C)cc4c(C)cc(F)cc43)ncn2)cc(F)c1C(=O)O [compound 524]	0.377	0.036
COc1cccc2c1cc(C)n2CCNc1cc(-c2ccc(C(=O)O)c(OC(F)(F)F)c2)ncn1 [compound 499]	0.714	0.006
Cc1cc2c(Cl)ccc(Cl)c2n1CCNc1cc(-c2ccc(C(=O)O)c(SC(C)C)c2)ncn1 [compound 424]	0.257	0.031
CCc1cc(-c2cc(NCCn3c(C)cc4c(OC)cc(F)cc43)ncn2)cc(Cl)c1C(=O)O [compound 438]	0.106	0.064
CCCc1cc(-c2cc(NCCn3c(C)cc4cc(C)cc(F)c43)ncn2)cc(F)c1C(=O)O [compound 417]	0.396	0.028
CNc1nnc(-c2ccc(-c3cc(NCCn4c(C)cc5c(OC)ccc(F)c54)ncn3)cc2)s1 [compound 471, [2-(7-Fluoro-4-methoxy-2-methyl-indol-1-yl)-ethyl]-{6-[4-(5-methylamino-[1,3,4]thiadiazol-2-yl)-phenyl]-pyrimidin-4-yl}-amine]	0.029	0.002
COc1cc(F)cc2c1cc(C)n2CCNc1cc(-c2ccc(-c3cnc(N)o3)cc2)ncn1 [compound 572]	0.045	0.018
Cc1ccc(F)c2c1cc(C)n2CCNc1cc(-c2ccc(C(=O)O)c(N3CCCC3)c2)ncn1 [compound 464, 4-{6-[2-(7-Fluoro-2,4-dimethyl-indol-1-yl)-ethylamino]-pyrimidin-4-yl}-2-pyrrolidin-1-yl-benzoic acid]	0.459	0.015
CCOc1cc(-c2cc(NCCn3c(Cl)cc4c(OC)ccc(F)c43)ncn2)sc1C(=O)O [Example 777, 5-{6-[2-(2-Chloro-7-fluoro-4-methoxy-indol-1-yl)-ethylamino]-pyrimidin-4-yl}-3-ethoxy-thiophene-2-carboxylic acid]	0.003	0.002
Cc1c(F)cc(F)c2c1cc(C)n2CCNc1cc(-c2ccc(C(=O)O)c(OC(F)F)c2)ncn1 [compound 510]	0.216	0.02
Cc1cc(F)cc2c1cc(C)n2CCNc1cc(-c2ccc(-c3cnc(N)o3)cc2)ncn1 [compound 552]	0.118	0.026
COc1ccc(F)c2c1cc(C)n2CCNc1cc(-c2ccc3c(=O)[nH][nH]c3c2)ncn1 [Example 773, 6-{6-[2-(7-Fluoro-4-methoxy-2-methyl-indol-1-yl)-ethylamino]-pyrimidin-4-yl}-1,2-dihydro-indazol-3-one]	0.049	0.032
Cc1cc(F)cc2c1cc(C)n2CCNc1cc(-c2ccc(-c3nc(C(=O)O)cs3)cc2)ncn1 [compound 545]	0.119	0.029
Cc1c(F)cc(Cl)c2c1cc(C)n2CCNc1cc(-c2ccc(C(=O)O)c(SC(C)C)c2)ncn1 [compound 504]	0.535	0.103
